According to publication PMC9260081, “Design, Synthesis, and Evaluation of Anticonvulsant Activities of New Triazolopyrimidine Derivatives” (Frontiers in Chemistry, 2022):
Where “and” joins values, the source holds several entries; their conditions need not be identical. Equal entries are not always repeated. Where two headings read alike, the source gives them in different places.

Tests used:
[1] = Neurotoxicity screening (rotarod test); assay type: in vivo; settings: male, Kunming, mouse, in vivo, ip; rotarod, mice; 95% confidence interval in brackets
Method: (§1) Male Kunming mice with weights from 18 to 22 g were used in all the pharmacological experiments. The mice were housed in the standard cages with 10 each, where a controlled temperature (25°C ± 2°C) with a 12 h light/dark cycle was maintained. All animals had free access to food and water. All experiments and procedures involving animals were carried out according to the Guide for the Care and Use of Laboratory Animals (National Academies Press, Washington, D.C., United States). Approval from the local medical ethical committee was obtained before the experiment.
(§2) The rotarod test was used to evaluate the neurotoxicity of the synthesized compounds. Before the formal experiments, mice were trained to climb on a rotating rod of diameter 3.2 cm with the rotation speed of 10 rpm. Test compounds in the three doses were intraperitoneally injected into the trained mice. […] The rough neurotoxic dose was obtained in which mice cannot maintain equilibrium on the rod for at least 1 min. The quantitative neurotoxic dose (TD50) of the test compounds was measured and calculated with the same method described in the MES test.

[2] = test system: ability to maintain equilibrium on rotating rod; test: Neurotoxicity screening (rotarod test); assay type: in vivo; settings: i.p.; for NT screening (rotarod), minimum neurotoxic dose in half or more of the mice: dosages 30, 100, 300 mg/kg
Method: as §1, §2

BIC-induced seizures = test: Bicuculline (BIC)-induced seizure test; assay type: in vivo; settings: BIC 5.4 mg/kg; compound 30 mg/kg, test time 0.5 h; percentage of animals, 10 mice
Method: as §1
In the BIC-induced seizure test, groups of 10 mice were administered with 30 mg/kg of test samples or vehicle. Then, 30 min later, the minimum dose of BIC (5.4 mg/kg) that could completely induce seizures for mice was subcutaneously injected into the test mice. The mice were placed into separate cages each, and the number of clonic seizures, tonic seizures, and mortality was recorded for 30 min.

GABAA BZD receptor = test: Radioligand receptor binding assay ([3H]-flumazenil competition); settings: rat brain membranes; for IC50: competition with 0.5 nM [3H]-flumazenil, 95% CI in brackets; for Ki: competition with [3H]-flumazenil, Cheng–Prusoff
MES-induced seizures = test: Maximal electroshock seizure (MES) test; assay type: in vivo, mice; settings: for MES model, number of animals protected/number of animals tested: 30 mg/kg, 0.5 h; for minimal effective dose / ED50: Mus musculus, ip; for minimal effective dose: dosages 30, 100, 300 mg/kg, read-out: MES screening, minimum dose whereby bioactivity was demonstrated in half or more of the mice; for ED50: read-out: ED50 MES; for PI MES, protective index (TD50/ED50): TD50 rotarod / ED50 MES, mice i.p.
Method: as §1
In the MES test, mice were subjected to ear stimulation using a 0.2 s 60-Hz 50-mA alternating current to elicit seizures. Tonic hind limb extension was considered as the seizure occurring, and the vanishing of tonic hind limb extension indicates the protection against the MES-induced seizures. Mice were injected intraperitoneally with test compounds at doses of 300, 100, and 30 mg/kg to evaluate their general anticonvulsant activity. Half and 4 h intervals were chosen to test the anti-MES activity. […] A series of doses of the tested compounds were injected into the mice with 10 in one group.

PTZ-induced seizures = test: Subcutaneous pentylenetetrazole (PTZ) test; assay type: in vivo, mice; settings: for PTZ model, number of animals protected/number of animals tested: 30 mg/kg, 0.5 h; for minimal effective dose / ED50: Mus musculus; for minimal effective dose / ED50 / PI scPTZ, protective index (TD50/ED50): ip; for minimal effective dose: dosages 30, 100, 300 mg/kg, read-out: PTZ screening, minimum dose whereby bioactivity was demonstrated in half or more of the mice; for ED50: read-out: ED50 scPTZ; for PI scPTZ, protective index (TD50/ED50): male, Kunming, mouse, in vivo
Method: as §1
In the PTZ test, mice were subcutaneously administered with PTZ at the dose of 85 mg/kg. At this dose, mice can be elicited a threshold seizure characterized by an episode of clonic spasms and tonic spasms. After being treated with test compounds at doses of 300, 100, and 30 mg/kg, the mice were considered protected if a single episode of clonic spasms of more than 5 s duration was not obtained. The quantitative anticonvulsant activity (ED50) in the PTZ model was determined and calculated with the same method described in the MES test.

[3] = pretreated with flumazenil (FMZ) 10 mg/kg 15 min before seizure induction
[4] = pretreated with thiosemicarbazide (TSC) 25 mg/kg/day for 3 days
[5] = mice, 95% confidence interval in brackets

| SMILES | NT screening (rotarod), minimum neurotoxic dose in half or more of the mice ([2]; 0.5 h after injection) | NT screening (rotarod), minimum neurotoxic dose in half or more of the mice ([2]; 4 h after injection) | minimal effective dose (MES-induced seizures; mice, 0.5 h after injection) | minimal effective dose (MES-induced seizures; mice, 4 h after injection) | ED50 (MES-induced seizures; [5]) | PI MES, protective index (TD50/ED50) (MES-induced seizures) | minimal effective dose (PTZ-induced seizures; mice, 0.5 h after injection) | minimal effective dose (PTZ-induced seizures; mice, 4 h after injection) | ED50 (PTZ-induced seizures; [5]) | PI scPTZ, protective index (TD50/ED50) (PTZ-induced seizures) | further results |
| --- | --- | --- | --- | --- | --- | --- | --- | --- | --- | --- | --- |
| CCCCCCOc1ccc(-c2ccnc3ncnn23)cc1 [Compound 6d, 7-(4-(Hexyloxy)phenyl)-[1,2,4]triazolo[1,5-a]pyrimidine] | 300 mg/kg | — (A dash indicates the absence of anticonvulsant activity and neurotoxicity at the maximum dose administered (300 mg/kg)) | 30 mg/kg | 100 mg/kg | 15.8 mg/kg | 20.1 | 30 mg/kg | > 300 mg/kg | 14.1 mg/kg | 22.5 | TD50 at 30 min [1]: 317 mg/kg; Clonic seizure (%) (BIC-induced seizures): 10%; Lethality (%) (BIC-induced seizures): 0%; Tonic seizure (%) (BIC-induced seizures): 0%; IC50 (GABAA BZD receptor): 8.4 nM; Ki (GABAA BZD receptor): 3.9 nM; MES model, number of animals protected/number of animals tested (MES-induced seizures; [3]): completely reversed and 0/5***; MES model, number of animals protected/number of animals tested (MES-induced seizures; [4]): completely reversed and 0/5***; MES model, number of animals protected/number of animals tested (MES-induced seizures; pretreatment with saline): full protection and completely protected and 5/5 ^c and 5/5; PTZ model, number of animals protected/number of animals tested (PTZ-induced seizures; [3]): completely reversed and 0/5***; PTZ model, number of animals protected/number of animals tested (PTZ-induced seizures; [4]): completely reversed and 0/5***; PTZ model, number of animals protected/number of animals tested (PTZ-induced seizures; pretreatment with saline): full protection and 5/5 |
| CN1C(=O)CN=C(c2ccccc2)c2cc(Cl)ccc21 [Diazepam, reference compound] | – | – | – | – | – | – | – | – | – | – | IC50 (GABAA BZD receptor): 1.3 nM; Ki (GABAA BZD receptor): 0.61 nM; ED50 (MES-induced seizures): 10.1 mg/kg; ED50 (PTZ-induced seizures): 0.5 mg/kg |
| Clc1ccc(-c2ccnc3ncnn23)c(Cl)c1 [Compound 3e, 7-(2,4-Dichlorophenyl)-[1,2,4]triazolo[1,5-a]pyrimidine] | — (A dash indicates the absence of anticonvulsant activity and neurotoxicity at the maximum dose administered (300 mg/kg)) | — (A dash indicates the absence of anticonvulsant activity and neurotoxicity at the maximum dose administered (300 mg/kg)) | 100 mg/kg | > 300 mg/kg | – | – | 100 mg/kg | > 300 mg/kg | – | – | – |
| c1ccc(-c2ccnc3ccnn23)cc1 [Compound 4a, 7-Phenylpyrazolo[1,5-a]pyrimidine] | — (A dash indicates the absence of anticonvulsant activity and neurotoxicity at the maximum dose administered (300 mg/kg)) | — (A dash indicates the absence of anticonvulsant activity and neurotoxicity at the maximum dose administered (300 mg/kg)) | > 300 mg/kg | > 300 mg/kg | – | – | > 300 mg/kg | > 300 mg/kg | – | – | – |
| Clc1ccccc1-c1ccnc2ccnn12 [Compound 4c, 7-(2-Chlorophenyl)pyrazolo[1,5-a]pyrimidine] | — (A dash indicates the absence of anticonvulsant activity and neurotoxicity at the maximum dose administered (300 mg/kg)) | — (A dash indicates the absence of anticonvulsant activity and neurotoxicity at the maximum dose administered (300 mg/kg)) | > 300 mg/kg | > 300 mg/kg | – | – | > 300 mg/kg | > 300 mg/kg | – | – | – |
| CCCOc1ccc(-c2ccnc3ncnn23)cc1 [Compound 6a, 7-(4-Propoxyphenyl)-[1,2,4]triazolo[1,5-a]pyrimidine] | — (A dash indicates the absence of anticonvulsant activity and neurotoxicity at the maximum dose administered (300 mg/kg)) | — (A dash indicates the absence of anticonvulsant activity and neurotoxicity at the maximum dose administered (300 mg/kg)) | 300 mg/kg | > 300 mg/kg | – | – | 300 mg/kg | > 300 mg/kg | – | – | – |
| c1ccc(COc2ccc(-c3ccnc4ncnn34)cc2)cc1 [Compound 6e, 7-(4-(Benzyloxy)phenyl)-[1,2,4]triazolo[1,5-a]pyrimidine] | 300 mg/kg | — (A dash indicates the absence of anticonvulsant activity and neurotoxicity at the maximum dose administered (300 mg/kg)) | 30 mg/kg | 300 mg/kg | 38 mg/kg | 9.6 | 30 mg/kg | > 300 mg/kg | 28.4 mg/kg | 12.9 | TD50 at 30 min [1]: 366 mg/kg |
| O=[N+]([O-])c1ccc(-c2ccnc3ncnn23)cc1 [Compound 3g, 7-(4-Nitrophenyl)-[1,2,4]triazolo[1,5-a]pyrimidine] | — (A dash indicates the absence of anticonvulsant activity and neurotoxicity at the maximum dose administered (300 mg/kg)) | — (A dash indicates the absence of anticonvulsant activity and neurotoxicity at the maximum dose administered (300 mg/kg)) | > 300 mg/kg | > 300 mg/kg | – | – | > 300 mg/kg | > 300 mg/kg | – | – | – |
| CCCC(CCC)C(=O)O [Valproate, reference compound] | – | – | – | – | 264 mg/kg | 1.6 | – | – | 149 mg/kg | 2.8 | TD50 ([2]; rotarod, mice, 95% confidence interval in brackets): 418 (369–450) mg/kg |
| O=[N+]([O-])c1ccc(-c2ccnc3ccnn23)cc1 [Compound 4g, 7-(4-Nitrophenyl)pyrazolo[1,5-a]pyrimidine] | — (A dash indicates the absence of anticonvulsant activity and neurotoxicity at the maximum dose administered (300 mg/kg)) | — (A dash indicates the absence of anticonvulsant activity and neurotoxicity at the maximum dose administered (300 mg/kg)) | > 300 mg/kg | > 300 mg/kg | – | – | > 300 mg/kg | > 300 mg/kg | – | – | – |
| CCCCCOc1ccc(-c2ccnc3ncnn23)cc1 [Compound 6c, 7-(4-(Pentyloxy)phenyl)-[1,2,4]triazolo[1,5-a]pyrimidine] | — (A dash indicates the absence of anticonvulsant activity and neurotoxicity at the maximum dose administered (300 mg/kg)) | — (A dash indicates the absence of anticonvulsant activity and neurotoxicity at the maximum dose administered (300 mg/kg)) | 30 mg/kg | 300 mg/kg | 25.3 mg/kg | 15.0 | 30 mg/kg | > 300 mg/kg | 23.7 mg/kg | 16.0 | TD50 at 30 min [1]: 380 mg/kg |
